# Measured values from article PMC5645319, “An Integrin-Targeted, Highly Diffusive Construct for Photodynamic Therapy” (Scientific Reports, 2017).
# Key:
# OVCAR5 cells = experiment: Uptake in monolayer cell cultures, confocal fluorescence microscopy; type: cell-based
# Experimental: (§1) All imaging experiments were carried out on an Olympus FV1000 confocal microscope with a stage-top incubator (Prior) to maintain humidity, 37 °C temperature, and 5% CO2 during imaging sessions. For each sample, imaging was restricted to 15 minutes from the time cells were removed from the incubator to avoid any artifacts related to cell death. Image acquisition parameters were chosen which captured signal from both samples/cell lines without any saturation of signal and were kept uniform between samples to allow for direct one-to-one comparison of signal. These parameters were also used to image cells treated with known concentrations of EtNBS, to allow for relative comparison of uptake against known references. For every imaging experiment and conditions, a minimum of three areas of interests were collected and analyzed.
# (§2) Stably transfected OVCAR5 cells overexpressing the alpha5 integrin as well as wild-type OVCAR5 cells were plated as described above in glass-bottom 35 mm culture dishes (P35G-0.170-14-C, MatTek) at a density of 200,000 cells per dish 24 hours prior to the start of experiments. Cells were administered the photosensitizer at a concentration of 10 µM in warmed complete cell culture medium and incubated for 3 hours in a 37 °C incubator under 5% CO2. […]
# [1] = Absorption spectroscopy to assess photosensitizer aggregation in water; type: physicochemical; details: for Aggregation in water by absorption spectrum: construct at 87.8 µM, compared with EtNBS in acidified methanol
# Description: Spectra were acquired using a home-built spectrometer that made use of a white light source for absorption measurements and a 655 nm LED for EtNBS excitation. Transmitted or absorbed light was collected and fiber-delivered to a QE65000 spectrometer (Ocean Optics) for spectral acquisition.
# monolayer OVCAR5 cells [2] = details: 5 µM concentration, no light; 'has been observed', no reference given; cited from earlier work
# Experimental: To assess the ability of the construct to carry out PDT, monolayer OVCAR5 cells were incubated with the EtNBS construct and illuminated with 660 nm light (Fig. 7). […] This is true even though the construct is more efficient in the generation of reactive radical species. This difference in light dose between the free molecule and its targeted construct, however, is not entirely surprising; similar higher light doses have been found necessary in immunoconjugates based on the benzoporphyrin der ...
# monolayer OVCAR5 cells [3] = experiment: Photodynamic therapy and dark toxicity in monolayer cultures, MTT viability assay
# Experimental: (§4) The MTT assay was used to evaluate cellular viability of PDT-treated monolayer cultures. […] The MTT reagent (Thiazolyl Blue Tetrazolium Bromide, Sigma) was administered to cells in warmed complete cell culture media at a concentration of 1 mg/mL. Growth medium was gently aspirated from wells so as not to remove weakly adhered cells and was replaced with MTT media solution (160 µL). Cells were then returned cells to the 37 °C incubator and kept under 5% CO2 for 60 minutes. After incubating cells, the MTT treatment solution was carefully and completely aspirated from wells, with DMSO then added (180 µL) to extract cellular Formazan. After incubating samples for 15 minutes at room temperature while periodically rocking plates to completely and uniformly dissolve Formazan crystals, Formazan-containing DMSO was aliquoted (50 µL volumes from each well in triplicate) into a 96-well plate alongside wells containing an equal volume of DMSO to be used for background subtraction. The absorbance of Formazan at 540 nm was then measured using a SpectraMax M5 (Molecular Devices) plate reader.
# (§5) After averaging measured absorbance values, background-subtraction was carried out and the standard deviation of the experimental values was calculated. For each individual sample group or treatment condition, the background-subtracted average absorbance value was normalized to that of the untreated (“NT”) control group to obtain the normalized cellular viabilities. […] All measurements were performed in triplicate to ensure high quality data collection.
# (§6) All steps involving the manipulation of photosensitizers were carried out under subdued lighting to the extent that it was possible to avoid artifacts from unintentional photodynamic effects. Wells within each dish were spaced far apart from each other to ensure minimal light administration cross-talk. All manipulations of media or other culture liquids were done manually, specifically avoiding the use of vacuum aspiration techniques to avoid the unintended removal of weakly adhered cells before, during or after therapy.
# (§7) Sequential blocking of integrins with cRGD peptide was achieved by administering a 10-fold excess of cRGD peptide (50 µM) in warmed DPBS to cells and incubating for a duration of 3 hours at 37 °C in a 5% CO2 incubator. Blocking solution was removed and replaced with photosensitizer-containing treatment media without performing a washing step and cells were immediately returned to the incubator for the appropriate time.
# (§8) Concentrated stock solutions of photosensitizers were diluted in and administered to cells in warmed complete cell culture media. […] Integrin-dependent PDT efficacy was evaluated using 10 µM photosensitizer doses. The comparison of PEG-dependent enhancement in PDT was evaluated using 5 µM photosensitizer doses. […]
# [4] = Reactive oxygen species generation, singlet oxygen sensor green (SOSG) fluorogenic assay
# Experimental: (§3) HPF (H36004) and SOSG (S36002) were purchased from Life Technologies and were used as directed by the manufacturer’s protocol. Working solutions were prepared at 10 µM in DPBS or 5 µM TRIS buffer (pH 7.5) for HPF and SOSG, respectively, using 10 µM concentrations of the appropriate photosensitizer. All sample irradiation was carried out using 660 nm-centered LED-generated light (M660L3, Thorlabs) at an irradiance of 100 mW/cm^2. Irradiation of 80 µL sample volumes was carried out in clear plastic 96-well plates, with the emission of the ROS probes measured with a plate reader (SpectraMax m5, Molecular Devices). Experiments were performed in triplicate and experimental values (N = 3) were averaged and background-subtraction was performed.
# [5] = system: OVCAR5 cell line engineered to ectopically overexpress the α5 integrin; experiment: Integrin-dependent uptake in monolayer culture, confocal fluorescence microscopy; type: cell-based
# Experimental: as §1, §2
# [6] = Reactive oxygen species generation, hydroxyphenyl fluorescein (HPF) fluorogenic assay; details: 10 µM photosensitizer, 660 nm
# Experimental: as §3
# monolayer OVCAR5 cells [7] = system: monolayer OVCAR5 cells
# Experimental: as §4, §5, §6, §7, §8
Compound,Photosensitizer uptake of free EtNBS relative to the construct (OVCAR5 cells; relative comparison),Aggregation in water by absorption spectrum (Supplementary Fig. 3) ([1]; 5 µM concentration),Aggregation in water by absorption spectrum [1],Drop in viability due solely to dark toxicity (monolayer OVCAR5 cells [2]) [%],"Toxicity of cRGD administered solely to cells (monolayer OVCAR5 cells [3]; cRGD only, not exposed to light, MTT)","ROS generation measured by SOSG versus free EtNBS ([4]; 10 µM photosensitizer, 660 nm, 100 mW/cm^2, all light doses tested (5–40 J/cm^2), triplicate)","Yield of singlet oxygen (SOSG) relative to free EtNBS ([4]; equimolar 10 µM photosensitizer, 5 µM SOSG in TRIS buffer pH 7.5, 660 nm LED, 100 mW/cm^2, highest light dose (40 J/cm^2), mean of triplicate) [%]","Uptake in alpha5 integrin overexpressing OVCAR5 versus OVCAR5 ([5]; 10 µM, 3 hours incubation, 37 °C, fluorescence excited at 635 nm, 670 nm emission)",Uptake of PEGylated versus unPEGylated construct in overexpressing cells ([5]; alpha5 integrin overexpressing OVCAR5 cells),Photosensitizer concentration within the cells relative to administered free EtNBS (OVCAR5 cells; EtNBS references at 250 nM and 500 nM),"Reduction in viability after PDT (monolayer OVCAR5 cells [3]; 5 µM photosensitizer, 3 hour incubation, 660 nm at 100 mW/cm^2, 100 J/cm^2 light dose, MTT 24 hours post-treatment, triplicate) [%]","PDT effect after pre-incubation with free cRGD (monolayer OVCAR5 cells [3]; pre-treated with cRGD 50 µM (tenfold molar excess) 3 hours, then construct 5 µM, 100 J/cm^2 at 660 nm, MTT)","Enhancement of HPF fluorescence versus free EtNBS ([6]; 10 µM HPF in DPBS, 100 mW/cm^2, dose of 50 J/cm^2, triplicate)","Photodynamic activity measured by HPF versus free EtNBS ([6]; 100 mW/cm^2, all light doses (5–100 J/cm^2), triplicate)","Toxicity without light, small scale experiments (monolayer OVCAR5 cells [7])"
CCNc1cc2sc3cc(=[N+](CC)CC)ccc-3nc2c2ccccc12.[Cl-] [EtNBS],up to two orders of magnitude greater uptake,displays a blue shift,formation of aggregates distorts the spectrum,70,,,,,,,,,,,
"N=C(N)NCCC[C@@H]1NC(=O)[C@H](CCCCN)NC(=O)[C@@H](Cc2ccccc2)NC(=O)[C@H](CC(=O)O)NC(=O)CNC1=O [cRGD, cRGDfK, reference compound]",,,,,did not result in any measured toxicity,,,,,,,,,,
"DOTA-Lys(ETNBS)-Lys(PEG5K)-β-Ala-Cys(DBCO-PEG4-cRGD) (head to tail) [EtNBS construct, cRGD integrin-targeted, 5 kDa PEGylated EtNBS photodynamic therapy construct with DOTA]",,,does not show aggregation,,,greater than that of free EtNBS,~100,significantly greater,take up more,many times lower,60,protected the cells against PDT,two-fold enhancement,considerably greater photodynamic activity,equally harmless
